The source of these data is patent EP3046573B1, “AMYLIN ANALOGUES” (Zealand Pharma A/S, priority 2013, dated 2015).

As a reminder, the pEC50 is the EC50 on a negative log10 scale, so that one unit is a factor of ten.

Series [1] concerns the target T1, human calcitonin receptor (hCTR2) (Homo sapiens, UniProt P30988).
T1 construct: expressed in transfected cells
T1 sequence (P30988 25-474): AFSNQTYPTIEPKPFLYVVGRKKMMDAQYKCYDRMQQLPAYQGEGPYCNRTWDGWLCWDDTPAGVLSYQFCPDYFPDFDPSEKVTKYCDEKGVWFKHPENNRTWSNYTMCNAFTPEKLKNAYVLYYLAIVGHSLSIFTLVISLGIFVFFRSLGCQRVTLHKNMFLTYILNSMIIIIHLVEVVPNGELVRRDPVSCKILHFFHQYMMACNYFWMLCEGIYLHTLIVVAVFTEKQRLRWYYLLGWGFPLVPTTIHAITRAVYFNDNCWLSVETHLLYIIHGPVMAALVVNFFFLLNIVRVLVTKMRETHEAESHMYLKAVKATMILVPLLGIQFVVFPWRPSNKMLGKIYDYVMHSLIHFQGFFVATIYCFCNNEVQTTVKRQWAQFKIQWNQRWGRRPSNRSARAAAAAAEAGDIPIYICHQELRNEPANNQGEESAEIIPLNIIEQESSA
Briefly: hCTR2 assay: induction of cAMP (AlphaScreen cAMP Assay kit) in COS7 cells expressing hCTR2. Type of series: cell-based. In short, it runs like this:
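cAMP read-out by AlphaScreen after cell lysis; EC50 and % efficacy vs pramlintide from 4-parameter logistic fitting. Agonist stimulation: hCTR2-COS7 stable cells, 15 min, 37° C, 100 µM IBMX, 0.1% casein, Tyrode/HEPES pH 7.4.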
On the technique in general: Alpha assays give light when donor and acceptor beads are brought close together.

Series [2] deals with T2, human amylin receptor 3 (hAMYR3) consisting of hCTR2 co-expressed with human Receptor Activity Modifying Protein 3 (hRAMP3) (Homo sapiens, UniProt O60896+P30988).
T2 construct: expressed in transfected cells
T2 sequence (P30988 25-474): T1 sequence (P30988 25-474)
T2 sequence (O60896 24-148 partner): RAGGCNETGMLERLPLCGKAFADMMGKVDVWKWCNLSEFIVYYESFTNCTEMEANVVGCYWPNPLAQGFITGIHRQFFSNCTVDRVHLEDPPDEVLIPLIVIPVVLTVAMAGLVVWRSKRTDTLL
Briefly: hAMYR3 assay: induction of cAMP (AlphaScreen cAMP Assay kit) in COS7 cells expressing hAMYR3. Type of series: cell-based. In short, it runs like this:
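cAMP accumulation read by AlphaScreen in lysates of RAMP-naive COS7 cells stably transfected with hCTR2 plus hRAMP3. Cells exposed to peptide dilutions for 15 min, 37° C, with 100 µM IBMX; 4PL fitting gave EC50 and efficacy relative to pramlintide.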

Series [3] is described as follows: Solubility assessment (turbidity absorbance at 325 nm). Type of series: physicochemical. Conditions: stock 2 mg/ml diluted 1:1, ambient temperature (typically 25°C), n=1; for Solubility, Acetate buffer pH 4: 100 mM acetate buffer pH 4.0; for Solubility, Acetate buffer pH 5: 100 mM acetate buffer pH 5.0; for Solubility, Histidine buffer pH 6: 100 mM histidine buffer pH 6.0; for Solubility, Histidine buffer pH 7: 100 mM histidine buffer pH 7.0; for Solubility, Phosphate buffer pH 6: 100 mM phosphate buffer pH 6.0; for Solubility, Phosphate buffer pH 7: 100 mM phosphate buffer pH 7.0; for Solubility, Phosphate buffer pH 7.5: 100 mM phosphate buffer pH7.5. In short, it runs like this:
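Read-out: turbidity as absorbance at 325 nm (280 nm also read), single samples, ambient temperature of typically 25°C. Samples were a 1:1 mix of 2 mg/ml stock (water, pH 2.5) with 100 mM acetate, histidine or phosphate buffers spanning pH 4.0–7.5. Cut-off: A325 ≤ 0.02 indicates ≥ 1 mg/ml.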

[4] abbreviates: cAMP induction in COS7 cells expressing hCTR2, average of a minimum of 3 determinations, read-out: hCTR2 EC50.
The mark [5] stands for this setting: cAMP induction in COS7 cells expressing hAMYR3, average of a minimum of 3 determinations, read-out: hAMY R3 EC50.

pEC50: −log10 of the molar value. Where two headings read alike, the source gives them in different places. Numbered stars: 1 amine (or outer) side, 2 acyl side, 3 side chain; on linkers, the order of the positions; unused ones are H or OH. Bridge positions count the residues as written; N and C are the ends. Square brackets hold non-standard residues; d marks the D form. Peptide text beside a SMILES is read from it. * marks the point of attachment. C20 diacid = O=C(O)CCCCCCCCCCCCCCCCCCC(=O)*; γGlu = O=C(O)[C@H](CCC(=O)[*:2])N[*:1]; NMeI = CC[C@H](C)[C@H](NC)C(=O)O; Sar = CNCC(=O)O

`CC[C@H](C)[C@@H](C(=O)N[C@@H](CC(C)C)C(=O)N[C@H](CO)C(=O)N[C@@H](CO)C(=O)N[C@H](C(=O)N[C@@H](CC(N)=O)C(=O)N[C@H](C(=O)NCC(=O)N[C@@H](CO)C(=O)N[C@@H](CC(N)=O)C(=O)N[C@H](C(=O)N1CCC[C@H]1C(N)=O)[C@@H](C)O)C(C)C)[C@@H](C)O)N(C)C(=O)[C@H](C)NC(=O)CN(C)C(=O)[C@@H](Cc1ccccc1)NC(=O)[C@H](CC(N)=O)NC(=O)[C@H](CC(N)=O)NC(=O)[C@H](CO)NC(=O)[C@H](CO)NC(=O)[C@H](CCCNC(=N)N)NC(=O)[C@H](Cc1c[nH]cn1)NC(=O)[C@H](CC(C)C)NC(=O)[C@H](Cc1ccccc1)NC(=O)[C@H](CCC(=O)O)NC(=O)[C@H](C)NC(=O)[C@H](CC(C)C)NC(=O)[C@H](CCCNC(=N)N)NC(=O)[C@H](CCC(N)=O)NC(=O)[C@@H](NC(=O)[C@H](C)NC(=O)[C@@H]1CSSC[C@H](NC(=O)[C@H](CCCCN)NC(=O)CC[C@H](NC(=O)CCCCCCCCCCCCCCCCCCC(=O)O)C(=O)O)C(=O)N[C@@H](CC(N)=O)C(=O)N[C@@H]([C@@H](C)O)C(=O)N[C@@H](C)C(=O)N[C@@H]([C@@H](C)O)C(=O)N1)[C@@H](C)O` [Compound 72, [19CD]-isoGlu-KC()NTATC()ATQRLAEFLHRSSNN-DPhe-Gly(Me)-A-Ile(Me)-L-DSer-STNVGSNTP] ({C20 diacid-γGlu}-KCNTATCATQRLAEFLHRSSNN[dF][Sar]A[NMeI]L[dS]STNVGSNTP-NH2; disulfide 2-7): the pEC50 in series [1] was 10.15. For the same molecule, the negative logarithm of the EC50 (pEC50) in series [2] was 10.01. Further, in series [3], the “Solubility, Acetate buffer pH 4” value is listed as “SS (SS indicates solubility ≥ 1mg/ml)”; the “Solubility, Acetate buffer pH 5” value is listed as “SS (SS indicates solubility ≥ 1mg/ml)”; the “Solubility, Histidine buffer pH 6” value is reported as “SS (SS indicates solubility ≥ 1mg/ml)”; the “Solubility, Histidine buffer pH 7” value is listed as “SS (SS indicates solubility ≥ 1mg/ml)”. In addition, in series [3], the “Solubility, Phosphate buffer pH 6” value is “SS (SS indicates solubility ≥ 1mg/ml)”; the “Solubility, Phosphate buffer pH 7” value is “SS (SS indicates solubility ≥ 1mg/ml)”; the “Solubility, Phosphate buffer pH 7.5” value is listed as “SS (SS indicates solubility ≥ 1mg/ml)”.
As to `CC[C@H](C)[C@@H](C(=O)N[C@@H](CC(C)C)C(=O)N[C@@H](CO)C(=O)N[C@@H](CO)C(=O)N[C@H](C(=O)N[C@@H](CC(=O)O)C(=O)N[C@H](C(=O)NCC(=O)N[C@@H](CO)C(=O)N[C@@H](CC(=O)O)C(=O)N[C@H](C(=O)N1CCC[C@H]1C(N)=O)[C@@H](C)O)C(C)C)[C@@H](C)O)N(C)C(=O)[C@H](C)NC(=O)CN(C)C(=O)[C@H](Cc1ccccc1)NC(=O)[C@H](CO)NC(=O)[C@H](CO)NC(=O)[C@H](CO)NC(=O)[C@H](CO)NC(=O)[C@H](CCCNC(=N)N)NC(=O)[C@H](Cc1c[nH]cn1)NC(=O)[C@H](CC(C)C)NC(=O)[C@H](Cc1ccccc1)NC(=O)[C@H](CCC(=O)O)NC(=O)[C@H](C)NC(=O)[C@H](CC(C)C)NC(=O)[C@H](CCCNC(=N)N)NC(=O)[C@H](CCC(N)=O)NC(=O)[C@@H](NC(=O)[C@H](C)NC(=O)[C@@H]1CSSC[C@H](NC(=O)[C@H](CCCNC(=N)N)NC(=O)CC[C@H](NC(=O)CCCCCCCCCCCCCCCCCCC(=O)O)C(=O)O)C(=O)N[C@@H](CC(N)=O)C(=O)N[C@@H]([C@@H](C)O)C(=O)N[C@@H](C)C(=O)N[C@@H]([C@@H](C)O)C(=O)N1)[C@@H](C)O` [Compound 73, [19CD]-isoGlu-RC()NTATC()ATQRLAEFLHRSSSSF-Gly(Me)-A-Ile(Me)-LSSTDVGSDTP-NH2] ({C20 diacid-γGlu}-RCNTATCATQRLAEFLHRSSSSF[Sar]A[NMeI]LSSTDVGSDTP-NH2; disulfide 2-7), in series [1] (setting [4]), the negative logarithm of the EC50 (pEC50) was 10.14. In addition, the pEC50 in series [2] (setting [5]) is 9.85. Moreover, in series [3], the “Solubility, Acetate buffer pH 4” value is given as “SS (SS indicates solubility ≥ 1mg/ml)”; the “Solubility, Acetate buffer pH 5” value is given as “II (II indicates solubility ≤ 1 mg/ml)”; the “Solubility, Histidine buffer pH 6” value is recorded as “SS (SS indicates solubility ≥ 1mg/ml)”; the “Solubility, Histidine buffer pH 7” value is “SS (SS indicates solubility ≥ 1mg/ml)”. Also, in series [3], the “Solubility, Phosphate buffer pH 6” value is listed as “SS (SS indicates solubility ≥ 1mg/ml)”; the “Solubility, Phosphate buffer pH 7” value was “SS (SS indicates solubility ≥ 1mg/ml)”; the “Solubility, Phosphate buffer pH 7.5” value is “SS (SS indicates solubility ≥ 1mg/ml)”.
Regarding `CC[C@H](C)[C@@H](C(=O)N[C@@H](CC(C)C)C(=O)N[C@@H](CO)C(=O)N[C@@H](CO)C(=O)N[C@H](C(=O)N[C@@H](CCC(=O)O)C(=O)N[C@H](C(=O)NCC(=O)N[C@@H](CO)C(=O)N[C@@H](CCC(=O)O)C(=O)N[C@H](C(=O)N1CCC[C@H]1C(N)=O)[C@@H](C)O)C(C)C)[C@@H](C)O)N(C)C(=O)[C@H](C)NC(=O)CN(C)C(=O)[C@H](Cc1ccccc1)NC(=O)[C@H](CO)NC(=O)[C@H](CO)NC(=O)[C@H](CO)NC(=O)[C@H](CO)NC(=O)[C@H](CCCNC(=N)N)NC(=O)[C@H](Cc1c[nH]cn1)NC(=O)[C@H](CC(C)C)NC(=O)[C@H](Cc1ccccc1)NC(=O)[C@H](CCC(=O)O)NC(=O)[C@H](C)NC(=O)[C@H](CC(C)C)NC(=O)[C@H](CCCNC(=N)N)NC(=O)[C@H](CCC(N)=O)NC(=O)[C@@H](NC(=O)[C@H](C)NC(=O)[C@@H]1CSSC[C@H](NC(=O)[C@H](CCCNC(=N)N)NC(=O)CC[C@H](NC(=O)CCCCCCCCCCCCCCCCCCC(=O)O)C(=O)O)C(=O)N[C@@H](CC(N)=O)C(=O)N[C@@H]([C@@H](C)O)C(=O)N[C@@H](C)C(=O)N[C@@H]([C@@H](C)O)C(=O)N1)[C@@H](C)O` [Compound 76, [19CD]-isoGlu-RC()NTATC()ATQRLAEFLHRSSSSF-Gly(Me)-A-Ile(Me)-LSSTEVGSETP-NH2] ({C20 diacid-γGlu}-RCNTATCATQRLAEFLHRSSSSF[Sar]A[NMeI]LSSTEVGSETP-NH2; disulfide 2-7), in series [1] (setting [4]), the pEC50 is 9.72. In addition, in series [2] (setting [5]), the pEC50 is 9.62. Besides, in series [3], the “Solubility, Acetate buffer pH 4” value is on record as “SS (SS indicates solubility ≥ 1mg/ml)”; the “Solubility, Acetate buffer pH 5” value is “II (II indicates solubility ≤ 1 mg/ml)”; the “Solubility, Histidine buffer pH 6” value is “SS (SS indicates solubility ≥ 1mg/ml)”; the “Solubility, Histidine buffer pH 7” value was “SS (SS indicates solubility ≥ 1mg/ml)”. For the same molecule, in series [3], the “Solubility, Phosphate buffer pH 6” value was “SS (SS indicates solubility ≥ 1mg/ml)”; the “Solubility, Phosphate buffer pH 7” value is “SS (SS indicates solubility ≥ 1mg/ml)”; the “Solubility, Phosphate buffer pH 7.5” value is reported as “SS (SS indicates solubility ≥ 1mg/ml)”.
